Our source for the IC50 and MTD values is US20090099140A1, “20-Alkyl, Gemini Vitamin D3 Compounds and Methods of Use Thereof” (BioXell S.p.A., priority 2005, published 2009).

Series [1] relates to IFN-γ production. The series is described as follows: IFN-γ production by allogeneic T cell activation in the mixed leukocyte response (MLR). It counts as cell-based. The settings on record: MLR of allogeneic PBMC from 2 different donors, 5 days, IFN-γ by ELISA, 50% inhibition of IFN-γ production. The method, then: Immature dendritic cells (DC) were prepared as described in Romani, N. et al., J. Immunol. Meth. 196:137. IFN-γ production by allogeneic T cell activation in the mixed leukocyte response (MLR) was determined as described in Penna, G., et al., J. Immunol., 164: 2405-2411 (2000).
Briefly, peripheral blood mononuclear cells (PBMC) were separated from buffy coats by Ficoll gradient and the same number (3×105) of allogeneic PBMC from 2 different donors were co-cultured in 96-well flat-bottom plates. After 5 days, IFN-γ production in the MLR assay was measured by ELISA and the results expressed as amount (nM) of test compound required to induce 50% inhibition of IFN-γ production (IC50) (Table 1).
(In general: An ELISA detects its analyte on a solid surface through an enzyme-linked reagent.)

Series [2] can be described thus: Determination of maximum tolerated dose (MTD), highest oral dose without hypercalcemia (serum calcium). It counts as in vivo. The settings on record: mouse, in vivo, po; eight week-old female C57BL/6 mice, p.o. daily for four days in miglyol; highest dose without hypercalcemia (serum calcium >10.7 mg/dl) on day five; read-out: MTD (mice). The method, then: The maximum tolerated dose of the vitamin D3 compounds of the invention were determined in eight week-old female C57BL/6 mice (3 mice/group) dosed orally (0.1 ml/mouse) with various concentrations of Vitamin D3 analogs daily for four days. Analogs were formulated in miglyol for a final concentration of 10, 30, 100 and 300 μg/kg when given at 0.1 ml/mouse p.o. daily. Blood for serum calcium assay was drawn by tail bleed on day five, the final day of the study. Serum calcium levels were determined using a colorimetric assay (Sigma Diagnostics, procedure no. 597). The highest dose of analog tolerated without inducing hypercalcemia (serum calcium >10.7 mg/dl) was taken as the maximum tolerated does (MTD).

Bounds are passed on as bounds.

Broadly, the IC50 is the concentration that inhibits the measured activity by half. A lower IC50 goes with greater potency in that assay. A word on the MTD: it is the highest dose tested that stayed within the study's limit of toxicity.

For “(20S)-1,25-Dihydroxy-20-[(2E)-5,5,5-trifluoro-4-hydroxy-4-trifluoromethyl-pent-2-enyl]-cholecalciferol [Compound 6]”, the IC50 in series [1] worked out at 0.044 nM. Regarding `[2H]C([2H])([2H])C(O)(CCCC(C)(C/C=C\C(O)(C(F)(F)F)C(F)(F)F)[C@H]1CCC2/C(=C/C=C3/C[C@@H](O)C[C@H](F)C3=C)CCC[C@@]21C)C([2H])([2H])[2H]` (stereo partly drawn) [Compound 18, 1α-Fluoro-25-hydroxy-20S-20-(4-hydroxy-5,5,5-trideutero-4-trideuteromethyl-pentyl)-23Z-ene-26,27-hexafluorocholecalciferol], the MTD at 4 days in series [2] is 100 µg/kg. Further, in series [1] (120 h), inhibition was half-maximal at 0.219 nM (IC50). In the case of `[2H]C([2H])([2H])C(O)(CCC[C@](C)(CC#CC(O)(C(F)(F)F)C(F)(F)F)[C@H]1CCC2/C(=C/C=C3C[C@@H](O)C[C@H](O)C3)CCC[C@@]21C)C([2H])([2H])[2H]` (stereo partly drawn) [Compound 32, 1,25-Dihydroxy-20R-20-(4-hydroxy-5,5,5-trideutero-4-trideuteromethyl-pentyl)-23-yne-26,27-hexafluoro-19-nor-cholecalciferol], the MTD at 4 days in series [2] is 0.3 µg/kg. As for `CC(C)(O)CCCC(C)(CCCC(C)(C)O)[C@H]1CCC2/C(=C/C=C3/CC(O)C[C@H](O)C3)CCC[C@@]21C` (stereo partly shown) [Compound 2, 1,25-Dihydroxy-20-(4-hydroxy-4-methyl-pentyl)-19-nor-cholecalciferol], the MTD at 4 days in series [2] was under 30 µg/kg. The IC50 in series [1] (120 h) was found to be 0.744 nM. With `[2H]C([2H])([2H])C(O)(CCCC(C)(C/C=C/C(O)(C(F)(F)F)C(F)(F)F)[C@H]1CCC2/C(=C/C=C3C[C@@H](O)C[C@H](O)C3)CCC[C@@]21C)C([2H])([2H])[2H]` (stereo partly drawn) [Compound 20, 1,25-Dihydroxy-20S-20-(4-hydroxy-5,5,5-trideutero-4-trideuteromethyl-pentyl)-23E-ene-26,27-hexafluoro-19-nor-cholecalciferol], the MTD at 4 days in series [2] is 0.1 µg/kg. Consider `C=C1/C(=C\C=C2/CCC[C@@]3(C)C2CC[C@@H]3C(C)(CCCC(C)(C)O)CCCC(C)(C)O)CC(O)C[C@@H]1O` (stereo partly shown) [Compound 1, 1,25-Dihydroxy-20-(4-hydroxy-4-methyl-pentyl)cholecalciferol], for which the MTD at 4 days in series [2] is 3 µg/kg. In series [1] (120 h), this molecule returned a concentration for half-maximal inhibition (IC50) of 0.518 nM. As for `[2H]C([2H])([2H])C(O)(CCC[C@](C)(C/C=C\C(O)(C(F)(F)F)C(F)(F)F)[C@H]1CCC2/C(=C/C=C3C[C@@H](O)C[C@H](O)C3)CCC[C@@]21C)C([2H])([2H])[2H]` (stereo partly drawn) [Compound 26, 1,25-Dihydroxy-20R-20-(4-hydroxy-5,5,5-trideutero-4-trideuteromethyl-pentyl)-23Z-ene-26,27-hexafluoro-19-nor-cholecalciferol], the MTD at 4 days in series [2] was 0.3 µg/kg. As for `C=C1/C(=C\C=C2/CCC[C@@]3(C)C2CC[C@@H]3[C@](C)(CC#CC(O)(C(F)(F)F)C(F)(F)F)CCCC(C)(C)O)CC(O)C[C@@H]1O` (stereo partly drawn) [Compound 4, (20S)-1,25-Dihydroxy-20-(5,5,5-trifluoro-4-hydroxy-4-trifluoromethyl-pent-2-ynyl)cholecalciferol], the MTD at 4 days in series [2] is 0.3 µg/kg. This molecule registered an IC50 in series [1] (120 h) of 0.049 nM. In the same order, the values of `C=C1/C(=C\C=C2/CCC[C@@]3(C)C2CC[C@@H]3[C@](C)(C/C=C\C(O)(C(F)(F)F)C(F)(F)F)CCCC(C)(C)O)CC(O)C[C@@H]1F` (stereo partly drawn) [Compound 14, (20S)-1α-Fluoro-25-hydroxy-20-[(2Z)-5,5,5-trifluoro-4-hydroxy-4-trifluoromethyl-pent-2-enyl]-cholecalciferol] are 100 µg/kg and 1.01 nM. Take `[2H]C([2H])([2H])C(O)(CCCC(C)(C/C=C\C(O)(C(F)(F)F)C(F)(F)F)[C@H]1CCC2/C(=C/C=C3C[C@@H](O)C[C@H](O)C3)CCC[C@@]21C)C([2H])([2H])[2H]` (stereo partly drawn) [Compound 17, 1,25-Dihydroxy-20S-20-(4-hydroxy-5,5,5-trideutero-4-trideuteromethyl-pentyl)-23Z-ene-26,27-hexafluoro-19-nor-cholecalciferol]: the MTD at 4 days in series [2] is 0.3 µg/kg. The same molecule returned an IC50 in series [1] (120 h) of 0.0025 nM. `[2H]C([2H])([2H])C(O)(CCCC(C)(C/C=C/C(O)(C(F)(F)F)C(F)(F)F)[C@H]1CCC2/C(=C/C=C3/C[C@@H](O)C[C@H](O)C3=C)CCC[C@@]21C)C([2H])([2H])[2H]` (stereo partly drawn) [Compound 19, 1,25-Dihydroxy-20S-20-(4-hydroxy-5,5,5-trideutero-4-trideuteromethyl-pentyl)-23E-ene-26,27-hexafluorocholecalciferol]: in series [2], the MTD at 4 days was 0.1 µg/kg. Consider `[2H]C([2H])([2H])C(O)(CCC[C@](C)(C/C=C/C(O)(C(F)(F)F)C(F)(F)F)[C@H]1CCC2/C(=C/C=C3/C[C@@H](O)C[C@H](O)C3=C)CCC[C@@]21C)C([2H])([2H])[2H]` (stereo partly drawn) [Compound 28, 1,25-Dihydroxy-20R-20-(4-hydroxy-5,5,5-trideutero-4-trideuteromethyl-pentyl)-23E-ene-26,27-hexafluorocholecalciferol], for which, in series [2], the MTD at 4 days was 0.3 µg/kg.

For the molecule `C=C1/C(=C\C=C2/CCC[C@@]3(C)C2CC[C@@H]3[C@@](C)(C/C=C/C(O)(C(F)(F)F)C(F)(F)F)CCCC(C)(C)O)C[C@@H](O)C[C@@H]1O` (stereo partly drawn) [Compound 9, (20R)-1,25-Dihydroxy-20-[(2E)-5,5,5-trifluoro-4-hydroxy-4-trifluoromethyl-pent-2-enyl]-cholecalciferol], the MTD at 4 days in series [2] was 0.1 µg/kg. For the same molecule, in series [1] (120 h), the IC50 was 0.049 nM.

Regarding `[2H]C([2H])([2H])C(O)(CCCC(C)(CC#CC(O)(C(F)(F)F)C(F)(F)F)[C@H]1CCC2/C(=C/C=C3C[C@@H](O)C[C@H](O)C3)CCC[C@@]21C)C([2H])([2H])[2H]` (stereo partly drawn) [Compound 23, 1,25-Dihydroxy-20S-20-(4-hydroxy-5,5,5-trideutero-4-trideuteromethyl-pentyl)-23-yne-26,27-hexafluoro-19-nor-cholecalciferol], in series [2], the MTD at 4 days was 1 µg/kg. `[2H]C([2H])([2H])C(O)(CCC[C@](C)(CC#CC(O)(C(F)(F)F)C(F)(F)F)[C@H]1CCC2/C(=C/C=C3/C[C@@H](O)C[C@H](F)C3=C)CCC[C@@]21C)C([2H])([2H])[2H]` (stereo partly drawn) [Compound 33, 1α-Fluoro-25-hydroxy-20R-20-(4-hydroxy-5,5,5-trideutero-4-trideuteromethyl-pentyl)-23-yne-26,27-hexafluorocholecalciferol] gave an IC50 in series [1] (120 h) of 0.0132 nM. As to `[2H]C([2H])([2H])C(O)(CCC[C@](C)(C/C=C\C(O)(C(F)(F)F)C(F)(F)F)[C@H]1CCC2/C(=C/C=C3/C[C@@H](O)C[C@H](F)C3=C)CCC[C@@]21C)C([2H])([2H])[2H]` (stereo partly drawn) [Compound 27, 1α-Fluoro-25-hydroxy-20R-20-(4-hydroxy-5,5,5-trideutero-4-trideuteromethyl-pentyl)-23Z-ene-26,27-hexafluorocholecalciferol], the IC50 in series [1] (120 h) is 0.307 nM. In series [1] (120 h), `C=C1/C(=C\C=C2/CCC[C@@]3(C)C2CC[C@@H]3[C@@](C)(CC#CC(O)(C(F)(F)F)C(F)(F)F)CCCC(C)(C)O)C[C@@H](O)C[C@@H]1O` (stereo partly drawn) [Compound 7, (20R)-1,25-Dihydroxy-20-(5,5,5-trifluoro-4-hydroxy-4-trifluoromethyl-pent-2-ynyl)-cholecalciferol] showed an IC50 of 0.038 nM.

Take `[2H]C([2H])([2H])C(O)(CCC[C@](C)(CC#CC(O)(C(F)(F)F)C(F)(F)F)[C@H]1CCC2/C(=C/C=C3/C[C@@H](O)C[C@H](O)C3=C)CCC[C@@]21C)C([2H])([2H])[2H]` (stereo partly drawn) [Compound 31, 1,25-Dihydroxy-20R-20-(4-hydroxy-5,5,5-trideutero-4-trideuteromethyl-pentyl)-23-yne-26,27-hexafluorocholecalciferol]: the MTD at 4 days in series [2] is 0.3 µg/kg. The molecule `[2H]C([2H])([2H])C(O)(CCC[C@](C)(C/C=C/C(O)(C(F)(F)F)C(F)(F)F)[C@H]1CCC2/C(=C/C=C3/C[C@@H](O)C[C@H](F)C3=C)CCC[C@@]21C)C([2H])([2H])[2H]` (stereo partly drawn) [Compound 30, 1α-Fluoro-25-hydroxy-20R-20-(4-hydroxy-5,5,5-trideutero-4-trideuteromethyl-pentyl)-23E-ene-26,27-hexafluorocholecalciferol] had an IC50 in series [1] (120 h) of 0.012 nM.

As for `[2H]C([2H])([2H])C(O)(CCC[C@](C)(C/C=C/C(O)(C(F)(F)F)C(F)(F)F)[C@H]1CCC2/C(=C/C=C3C[C@@H](O)C[C@H](O)C3)CCC[C@@]21C)C([2H])([2H])[2H]` (stereo partly drawn) [Compound 29, 1,25-Dihydroxy-20R-20-(4-hydroxy-5,5,5-trideutero-4-trideuteromethyl-pentyl)-23E-ene-26,27-hexafluoro-19-nor-cholecalciferol], in series [2], the MTD at 4 days was 0.1 µg/kg. As for `[2H]C([2H])([2H])C(O)(CCCC(C)(CC#CC(O)(C(F)(F)F)C(F)(F)F)[C@H]1CCC2/C(=C/C=C3/C[C@@H](O)C[C@H](O)C3=C)CCC[C@@]21C)C([2H])([2H])[2H]` (stereo partly drawn) [Compound 22, 1,25-Dihydroxy-20S-20-(4-hydroxy-5,5,5-trideutero-4-trideuteromethyl-pentyl)-23-yne-26,27-hexafluorocholecalciferol], the MTD at 4 days in series [2] is 0.3 µg/kg.
